Three molecules from patent publication US20170015626A1, “TWO-PHOTON-ABSORBING COMPOUND” (OTSUKA ELECTRONICS CO., LTD., priority 2014, published 2017) can be followed below.

The subject of this test is Hek293 cells. The test can be described thus: Fluorescence staining experiment on cells, observed by two-photon excitation fluorescence microscopy. Format: cell-based, Human. The settings on record: for emission of a red fluorescence from the stained cells by two-photon excitation fluorescence microscopy: Hek293 cells stained at 1 μmol dm^−3 for 12 hours, band pass filter central wavelength 650 nm; for fluorescence staining of HeK293 cells: final concentration 1 μmol dm^−3, final DMSO 0.1% (v/v), incubated for 12 hours. As for the experimental part: Human embryonic kidney cells, namely, Hek293 cells were used as model cells for staining. The Hek293 cells were cultured in Dulbecco's Modified Eagle's Medium (DMEM) containing 10% (v/v) fetal bovine serum and 1% (v/v) […] and streptomycin under conditions of 37° C. and 5% CO2.
For preparation of microscopic observation, Hek293 cells were subcultured on a 35-mm glass-based dish, to result in a cell density of 1×10^5 cells/dish. 24 hours after the subculture, adhesion of the cells to the dish was confirmed by microscopic observation. The medium was removed from the dish, and the resulting cells were then washed with a phosphate buffered saline (PBS) twice. 2 mL of DMEM medium not containing phenol red (final concentration of PY: 1 μmol dm^−3, final DMSO concentration: 0.1% (v/v)), to which 2 μL of dimethyl sulfoxide (DMSO) solution of the 1×10^−3 mol/dm^−3 naphthalene derivative (I), anthracene derivative (II) or pyrene derivative (III) had been added, was placed in the dish, and it was then incubated for 12 hours for staining. Immediately before microscopic observation, the medium containing the pigment was removed from the dish, and PBS was then used to wash the cells twice. After that, 2 mL of the DMEM medium not containing phenol red was added to the dish.
A two-photon excitation fluorescence microscope was produced using Optical Block (Hamamatsu Photonics K. K.). As a light source, Femtosecond titanium-sapphire laser (Mira900, Coherent) was used. A mirror unit equipped with a Galvano scanner for scanning a focal point, a short-pass dichroic mirror (FF750-SDi02-25×36, Semrock) having a cutoff wavelength at 750 nm, and a band pass filter (FF01-650/60-25, Semrock) having a central wavelength at 650 nm was inserted into the optical system. For detection of fluorescence, a photomultiplier tube (R928, Hamamatsu Photonics K. K.) was used, and DC was detected at an applied voltage of 1000 V, through a preamplifier (5 MHz)-equipped socket. USB-6251 BNC was used as DAQ, and Lab VIEW2011 (National Instruments) was used as a platform of the control program. As a sample stage, KZGO620-G was used, and as objective lens, infinity corrected objective lens with a magnification of 40 and NA of 1.15 was used.

For the molecule `C[n+]1ccc(/C=C/c2ccc3cc4cc(/C=C/c5cc[n+](C)cc5)ccc4cc3c2)cc1` [anthracene derivative (II)], the “emission of a red fluorescence from the stained cells by two-photon excitation fluorescence microscopy” value (“emission of a red fluorescence” below) was “emission of a red fluorescence from the aforementioned cells was observed” and the “fluorescence staining of HeK293 cells” value is on record as “could achieve the fluorescence staining of HeK293 cells”.

As for `C[n+]1ccc(/C=C/c2ccc3cc(/C=C/c4cc[n+](C)cc4)ccc3c2)cc1` [naphthalene derivative (I)], the “emission of a red fluorescence” value is on record as “emission of a red fluorescence from the aforementioned cells was observed” and the “fluorescence staining of HeK293 cells” value is reported as “could achieve the fluorescence staining of HeK293 cells”.

With `CCCCc1cc(C=Cc2cc[n+](C)cc2)c2ccc3c(CCCC)cc(C=Cc4cc[n+](C)cc4)c4ccc1c2c43.[I-].[I-]` [pyrene derivative (III)], the “emission of a red fluorescence” value is “emission of a red fluorescence from the aforementioned cells was observed” and the “fluorescence staining of HeK293 cells” value is recorded as “could achieve the fluorescence staining of HeK293 cells”.
